Assay results published in patent publication US7951979B2, “2,4,6-trisubstituted phenols having anesthetic properties” (University of Iowa Research Foundation, priority 2006, dated 2011).

Tests used:
GABA receptors = experiment: in vitro assay for direct GABA activation; type: cell-based; settings: FIG. 2
Description: Propofol and analogs are known to activate GABA receptors (see, e.g., Trapani et al., J. Med. Chem. 1998, 41, 1846-1854, incorporated herein by reference). While the relationship between GABA activation and anesthetic activity is not completely clear, it is believed that the ability of a compound to directly activate GABA receptors may be related to the anesthetic, sedative, and/or anxiolytic activity of the compound. Compounds of the invention can be tested in in vitro electrophysiological assays to determine the ability of the compound to activate GABA receptors.
Compound 1 was synthesized as described in Example 1. The compound was tested in an in vitro assay for direct GABA activation.

rats = experiment: i.v. injection into the lateral tail vein of rats, loss of righting reflex / anesthesia
Description: Compound 1 was formulated in 16% Cremophor EL solution in water at a concentration of approximately 15 mg/ml and tested in rats as follows.
Approximately 15 mg/kg of Compound 1 in the suspension were injected into the lateral tail vein of two rats (weight 330-340 g).

[1] = Rat 1, approximately 15 mg/kg i.v. (lateral tail vein), 16% Cremophor EL in water
[2] = rat, conditions similar to Example 2 (similar dose and route of administration)

SMILES | direct activation of GABA receptors (GABA receptors) | time post-injection at which the rat appeared normal (rats; [1]) | total time of loss of righting reflex (rats; [1]) | total time of loss of righting reflex (rats; Rat 2 (agitated prior to injection), approximately 15 mg/kg i.v. (lateral tail vein), 16% Cremophor EL in water) | duration of anesthesia (rats; rats, about 15 mg/kg i.v.) [min] | tremors, agitation or excitement on injection (rats; rats, about 15 mg/kg i.v.) | overall anesthetic activity (rats; rats, i.v.) | induction of anesthesia (rats; [2]) | tremors and shaking upon i.v. injection (rats; [2])
CC(C)c1cc(C(O)C(F)(F)F)cc(C(C)C)c1O (stereo not drawn) [Compound 1, 2,6-diisopropyl-4-(2,2,2-trifluoro-1-hydroxy-ethyl)-phenol] | capable of direct activation of GABA receptors | about 7.5 minutes | about 3.5 minutes | about 2.0 minutes | 2 to 3 | without tremors, agitation or excitement | potent short-acting i.v. anesthetic |  | 
CC(C)c1cc(C(=O)C(F)(F)F)cc(C(C)C)c1O [Compound 2, 2,2,2-trifluoro-1-(4-hydroxy-3,5-diisopropyl-phenyl)-ethanone] |  |  |  |  |  |  |  | did not appear to induce anesthesia | caused tremors and shaking
